Reference: US5811391A, “Cyclic CS-1 peptidomimetics, compositions and methods of using same” (Cytel Corporation, priority 1995, dated 1998)
Values joined by “and” are separate entries in the source; they are usually repeats but may differ in a detail not shown here. Equal entries are not always repeated. Positions of bridges follow the written chain, without caps; N, C: chain ends. Non-standard residues stand in square brackets, D forms with d. Residues, ends and D or L forms follow the SMILES beside them. No end group written: not given here. *: point of attachment. PhAc = O=C(Cc1ccccc1)*

Key:
VLA-4/sVCAM-1 = target: T1, VLA-4/sVCAM-1 (Homo sapiens, UniProt P05556+P13612); test: In vitro binding assay: Jurkat cells to solid phase-bound sVCAM-1; assay type: cell-based; conditions: for relative potencies for inhibiting Jurkat cell binding to solid phase-bound sVCAM-1: compared against each other, XLDFp = 1
T1 construct: host or cells: Jurkat cells carry the VLA-4; The sVCAM-1 partner was made in house in transfected human embryonal kidney 293 cells (ATCC CRL 1573)
Experimental: Assays conducted using sVCAM-1 as solid phase-bound antigen were carried out substantially identically to those using CS-1. The sVCAM-1 polypeptide used had the same amino acid residue sequence as the materials described in Lobb et al., Biochem. Biophys. Res. Commun., 178:1498-1504 (1991) and Cybulsky et al., Proc. Natl. Acad. Sci., USA, 88:7859-7863 (1991). Human embryonal kidney line 293 (ATCC CRL 1573) cells were co-transfected with a plasmid (pCDNAI;invitrogen) containing the sVCAM-1 DNA sequence and plasmid pSV2-neo [Southern et al., J. Mol. Appl. Gen., 1:327-341 ([…])]. Cells were selected in DMEM, 10 percent fetal bovine serum and 600 μg/ml Geneticin. sVCAM-1 was purified from supernatants using a column containing monoclonal antibody P3H12 (anti-human VCAM-1) coupled to Sepharose 4B. The sVCAM-1 was eluted using 0.1M glycine at pH 2.5 following 50 column washes with PBS, pH 7.2. The eluate was immediately neutralized and dialyzed against PBS for use.

[1] = Retention of potency in PBS containing 10 percent mouse or human serum; assay type: in vitro ADME; conditions: PBS at 7.2-7.4 containing 10 percent mouse or human serum
VLA-4 [2] = target: T2, VLA-4 (Homo sapiens, UniProt P05556+P13612); test: In vitro binding assay: 51Cr-labeled Jurkat cells to solid phase-bound CS-1 peptide (SEQ ID NO:5); assay type: cell-based; parameters: inflammatory cells that contain the VLA-4 receptor [Jurkat cells; host or cells: Jurkat cells (human T lymphoblastic line); conditions: for Relative Potency: Jurkat cells, CS-1; for CS-1 inhibition potencies relative to each other: ratio XLDFZ:XLDFp:SEQ ID NO:7, XLDFp = 1; for Potency in inhibiting Jurkat cell binding to CS-1 relative to standard 10-mer of SEQ ID NO:6: times/fold more potent than SEQ ID NO:6
Experimental: Binding inhibition is measured here as a concentration of peptide that inhibits one-half the binding between a standard number of Jurkat cells and a standard amount of CS-1 peptide bound to the surface of a microtiter plate well. Those concentrations are conveniently expressed as IC50 values, smaller numbers indicating a lower concentration required to inhibit 50 percent binding and therefore greater potency. Further specifics of this assay are provided hereinafter.
Jurkat cells (ATCC TIB 152), a human T lymphoblastic line, labeled with ^51 chromium were used to assay in vitro binding inhibition provided by various peptides discussed herein.
The plates were prepared as follows: The 25-mer CS-1 peptide (SEQ ID NO:5) dissolved at 0.5-1 μg/ml in a buffer of 0.1M NaHCO3 at pH 9.5 that also contained 10 μg/ml of bovine serum albumin (BSA) or a conjugate of the CS-1 peptide linked to ovalbumin (CS-1-OVA) dissolved at 1-2.5 μg/ml in the same buffer was used as the substrate. Each well of the microtiter plates was coated with 50 μl of substrate or buffer alone for controls. The wells were permitted to dry out completely and were then rinsed twice with PBS at pH 7.4. Non-specific binding sites of each well were then blocked using 200 μl per well of RPMI/1 percent BSA for two hours at room temperature. Both solid phase-affixed substrates provided similar results.
Jurkat cells (3-5×10^6 cells) were placed into a 15 ml FALCON™ round-bottom tube with a cap. The tube was centrifuged, and the extra medium was then removed.
Two hundred microliters of a ^51 Cr labeling solution were added to the centrifuged cells and maintained in contact with the cells for 90-120 minutes in a warm room. This procedure typically provides about 50,000-100,000 cpm/well with about 80-100 percent cell viability. Longer contact times provide a greater amount of labeling but lower cell viability.
The labeled cells were washed with (i) complete medium, (ii) 1mM EDTA/PBS and then (iii) RPM1/1 percent BSA free of serum components. The cells were centrifuged after each washing. The cells were finally resuspended in serum-free RPMI/1 percent BSA at a concentration of 1×10^6 viable cells/ml, which provides a concentration that is diluted by one-half in the assay.
Cyclic inhibitor peptides were prepared as stock solutions at 20 mg/ml in DMSO in 1.5 ml cryogenic screwcap vials, and were stored at -70° C. Using FLOW™ round-bottom or V-bottom microtiter plates, the inhibitor peptides were prepared at twice the assay concentration in RPMI/1 percent BSA at 60 μl/well.
Four initial dilutions were typically used.
The ^51 Cr-labeled cells (1×10^6 cells at 60 μl/well) were then admixed with the diluted cyclic peptide solutions. The admixtures were maintained at room temperature (about 22° C.) for 30 minutes.
One hundred microliters of each inhibitor peptide/cell admixture were transferred to the substrate-coated wells. This was done in triplicate for each dilution. The resulting plates were incubated for 30 minutes at 37° C. and then washed gently three times with RPMI/1 percent BSA at 200 μl/well. Binding was observed microscopically, particularly after the second wash.
The bound cells were then lysed by the addition of a 0.5 percent solution of sodium dodecylsulfate in water at 100 μl/well. The resulting solutions were then processed for counting and calculation of IC50 values following usual procedures. Appropriate positive and negative controls were used with each plate so that the results of separate assays could be normalized and compared.
The potency data of Table 1 and Table 2 are so normalized. The absolute IC50 value for the peptide of SEQ ID NO:7 is 0.3 μM.

contact hypersensitivity = conditions: Ferguson et al. 1991; cited from earlier work
VLA-4 [3] = target: T2, VLA-4; conditions: cited from earlier work
[4] = Table 1, normalized IC50 potency relative to standard peptide SEQ ID NO:6 (=1)
[5] = Table 2, normalized IC50 potency relative to standard peptide SEQ ID NO:6

T2 sequence (P13612 34-1032): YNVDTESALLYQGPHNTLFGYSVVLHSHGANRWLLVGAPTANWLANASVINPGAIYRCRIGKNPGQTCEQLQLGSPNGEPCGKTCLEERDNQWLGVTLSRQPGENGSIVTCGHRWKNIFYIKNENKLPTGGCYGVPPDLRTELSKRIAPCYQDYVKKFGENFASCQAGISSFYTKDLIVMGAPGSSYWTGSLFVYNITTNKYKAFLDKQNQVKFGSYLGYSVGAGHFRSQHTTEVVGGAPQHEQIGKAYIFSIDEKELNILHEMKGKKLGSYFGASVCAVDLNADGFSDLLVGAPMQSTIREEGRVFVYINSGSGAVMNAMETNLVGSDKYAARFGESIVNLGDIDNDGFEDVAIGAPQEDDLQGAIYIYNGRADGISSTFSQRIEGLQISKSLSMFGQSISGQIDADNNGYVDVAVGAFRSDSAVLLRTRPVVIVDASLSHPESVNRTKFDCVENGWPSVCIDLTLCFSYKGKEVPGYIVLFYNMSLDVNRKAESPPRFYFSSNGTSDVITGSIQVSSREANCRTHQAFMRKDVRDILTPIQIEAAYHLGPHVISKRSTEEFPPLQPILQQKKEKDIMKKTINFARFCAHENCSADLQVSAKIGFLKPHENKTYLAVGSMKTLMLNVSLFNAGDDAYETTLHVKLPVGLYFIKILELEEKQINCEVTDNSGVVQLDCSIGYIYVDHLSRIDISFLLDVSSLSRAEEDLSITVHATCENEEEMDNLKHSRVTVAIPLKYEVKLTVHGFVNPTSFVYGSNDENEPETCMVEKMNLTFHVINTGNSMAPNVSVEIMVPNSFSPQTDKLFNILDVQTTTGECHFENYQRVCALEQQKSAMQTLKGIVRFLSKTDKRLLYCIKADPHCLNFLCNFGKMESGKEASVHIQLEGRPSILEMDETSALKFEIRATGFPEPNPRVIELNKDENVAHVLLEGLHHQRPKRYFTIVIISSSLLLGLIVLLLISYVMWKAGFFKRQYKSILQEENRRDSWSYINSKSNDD
T2 sequence (P05556 21-798): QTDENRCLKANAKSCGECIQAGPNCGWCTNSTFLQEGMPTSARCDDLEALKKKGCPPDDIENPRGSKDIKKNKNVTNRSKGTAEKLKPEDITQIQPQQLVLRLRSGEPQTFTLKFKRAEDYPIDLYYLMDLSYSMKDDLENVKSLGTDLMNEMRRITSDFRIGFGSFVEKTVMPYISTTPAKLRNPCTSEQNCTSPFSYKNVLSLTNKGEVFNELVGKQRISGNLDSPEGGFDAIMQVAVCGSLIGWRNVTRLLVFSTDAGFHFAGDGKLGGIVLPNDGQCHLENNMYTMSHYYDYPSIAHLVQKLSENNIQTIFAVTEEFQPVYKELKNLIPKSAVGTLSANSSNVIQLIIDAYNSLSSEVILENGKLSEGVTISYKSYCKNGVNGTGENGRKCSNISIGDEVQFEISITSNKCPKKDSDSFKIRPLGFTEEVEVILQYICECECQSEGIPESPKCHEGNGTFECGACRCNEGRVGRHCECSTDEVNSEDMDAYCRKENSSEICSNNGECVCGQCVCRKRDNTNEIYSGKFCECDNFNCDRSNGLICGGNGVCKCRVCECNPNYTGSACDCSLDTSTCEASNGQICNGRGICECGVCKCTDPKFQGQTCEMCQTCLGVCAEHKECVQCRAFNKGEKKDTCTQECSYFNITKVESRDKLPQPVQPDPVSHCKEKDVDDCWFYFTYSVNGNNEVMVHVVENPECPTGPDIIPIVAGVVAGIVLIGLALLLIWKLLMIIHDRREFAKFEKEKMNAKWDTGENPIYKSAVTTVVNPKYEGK
T1 sequence (P13612 34-1032): as the sequence (P13612 34-1032) above
T1 sequence (P05556 21-798): as the sequence (P05556 21-798) above

Relative Potency (VLA-4 [2]; [4])	Relative Potency (VLA-4 [2]; [5])	Compound	further results
526		NC(=O)[C@@H]1CSSC[C@H](NC(=O)Cc2ccccc2)C(=O)N[C@@H](CC(=O)O)C(=O)N[C@@H](Cc2ccccc2)C(=O)N1 [SEQ ID NO:7, .phi.AcCDFC-NH2] (PhAc-CDFC-NH2; disulfide 1-4)	potency relative to the best linear peptide (XLDFZ) as inhibitor of Jurkat cell binding to sVCAM-1 (VLA-4/sVCAM-1): about 3 times; relative potencies for inhibiting Jurkat cell binding to solid phase-bound sVCAM-1 (VLA-4/sVCAM-1): ~3.8; loss of potency in serum-containing buffer [1]: no loss of potency after 24 hours; potency relative to the best linear peptide (XLDFZ) for inhibiting Jurkat cell binding to CS-1 (VLA-4 [2]): about two-thirds the potency; CS-1 inhibition potencies relative to each other (VLA-4 [2]): ~1.8; Potency in inhibiting Jurkat cell binding to CS-1 relative to standard 10-mer of SEQ ID NO:6 (VLA-4 [2]): 500-600 and ~563
1		CC(C)C[C@@H]1NC(=O)[C@@H](N)CSSC[C@@H](C(N)=O)NC(=O)[C@H](Cc2ccccc2)NC(=O)[C@H](CC(=O)O)NC1=O [SEQ ID NO:28, CLDFC -NH2] (H-CLDFC-NH2; disulfide 1-5)	
1		CC(=O)N[C@@H](Cc1ccccc1)C(=O)N[C@H]1CSSC[C@@H](C(=O)N2CCC[C@H]2C(N)=O)NC(=O)[C@H](CC(=O)O)NC1=O [SEQ ID NO:29, AcFCDCP-NH2] (Ac-FCDCP-NH2; disulfide 2-4)	
< 1		NC(=O)[C@@H]1CCCN1C(=O)[C@@H]1CSSC[C@H](NC(=O)[C@@H](N)Cc2ccccc2)C(=O)N[C@@H](CC(=O)O)C(=O)N1 [SEQ ID NO:30, FCDCP-NH2] (H-FCDCP-NH2; disulfide 2-4)	
31		CC(C)C[C@@H]1NC(=O)[C@H](CCC(=O)O)NC(=O)[C@@H]2CCCN2C(=O)[C@@H](N)CSSC[C@@H](C(N)=O)NC(=O)[C@H](CO)NC(=O)[C@@H]2CCCN2C(=O)[C@H](Cc2ccccc2)NC(=O)[C@H](CC(=O)O)NC1=O [SEQ ID NO:33, CPELDFPSC-NH2] (H-CPELDFPSC-NH2; disulfide 1-9)	
		CC(C)C[C@H](NC(=O)Cc1ccccc1)C(=O)N[C@@H](CC(=O)O)C(=O)N[C@@H](Cc1ccccc1)C(=O)N1CCC[C@@H]1C(N)=O [XLDFp, .phi.Ac-LeuAspPhe-D-Pro-NH2, reference compound] (PhAc-LDF[dP]-NH2)	relative potencies for inhibiting Jurkat cell binding to solid phase-bound sVCAM-1 (VLA-4/sVCAM-1): ~1; CS-1 inhibition potencies relative to each other (VLA-4 [2]): ~1; Potency in inhibiting Jurkat cell binding to CS-1 relative to standard 10-mer of SEQ ID NO:6 (VLA-4 [2]): ~313
	254	CC(C)C[C@@H]1NC(=O)[C@H](Cc2ccccc2)NC(=O)[C@@H](N)CSSC[C@@H](C(N)=O)NC(=O)[C@@H]2CCCN2C(=O)[C@H](Cc2ccccc2)NC(=O)[C@H](CC(=O)O)NC1=O [drawing 7] (H-CFLDFPC-NH2; disulfide 1-7)	
	135	CC(=O)N[C@H]1CSSC[C@@H](C(N)=O)NC(=O)[C@@H]2CCCN2C(=O)[C@H](Cc2ccccc2)NC(=O)[C@H](CC(=O)O)NC(=O)[C@H](CC(C)C)NC(=O)[C@H](Cc2ccccc2)NC1=O [drawing 10] (Ac-CFLDFPC-NH2; disulfide 1-7)	
	131	NC(=O)[C@@H]1CSSC[C@H](NC(=O)[C@@H](N)Cc2ccccc2)C(=O)N[C@@H](CC(=O)O)C(=O)N[C@@H](Cc2ccccc2)C(=O)N2CCC[C@H]2C(=O)N1 [drawing 11] (H-FCDFPC-NH2; disulfide 2-6)	
	122	CC(C)C[C@@H]1NC(=O)[C@H](Cc2ccccc2)NC(=O)[C@@H](N)CSSC[C@@H](C(N)=O)NC(=O)[C@H](CO)NC(=O)[C@@H]2CCCN2C(=O)[C@H](Cc2ccccc2)NC(=O)[C@H](CC(=O)O)NC1=O [drawing 12] (H-CFLDFPSC-NH2; disulfide 1-8)	
	52.6	CC(=O)N[C@@H](Cc1ccccc1)C(=O)N[C@H]1CSSC[C@@H](C(N)=O)NC(=O)[C@H](Cc2ccccc2)NC(=O)[C@H](CC(=O)O)NC1=O [drawing 21] (Ac-FCDFC-NH2; disulfide 2-5)	
	31.3	CC(C)C[C@@H]1NC(=O)[C@H](Cc2ccccc2)NC(=O)[C@H](CCC(=O)O)NC(=O)[C@@H]2CCCN2C(=O)[C@@H](N)CSSC[C@@H](C(N)=O)NC(=O)[C@@H]2CCCN2C(=O)[C@H](Cc2ccccc2)NC(=O)[C@H](CC(=O)O)NC1=O [drawing 23] (H-CPEFLDFPC-NH2; disulfide 1-9)	
	18.8	CC(C)C[C@@H]1NC(=O)[C@H](Cc2ccccc2)NC(=O)[C@H](CCC(=O)O)NC(=O)[C@@H](N)CSSC[C@@H](C(N)=O)NC(=O)[C@@H]2CCCN2C(=O)[C@H](Cc2ccccc2)NC(=O)[C@H](CC(=O)O)NC1=O [drawing 26] (H-CEFLDFPC-NH2; disulfide 1-8)	
	9.39	CC(C)C[C@@H]1NC(=O)[C@H](Cc2ccccc2)NC(=O)[C@H](CCC(=O)O)NC(=O)[C@@H]2CCCN2C(=O)CNC(=O)[C@@H](N)CSSC[C@@H](C(N)=O)NC(=O)[C@H](Cc2ccccc2)NC(=O)[C@H](CC(=O)O)NC1=O [drawing 30] (H-CGPEFLDFC-NH2; disulfide 1-9)	
	6.26	CC(C)C[C@@H]1NC(=O)[C@H](Cc2ccccc2)NC(=O)[C@H](CCC(=O)O)NC(=O)[C@@H](N)CSSC[C@@H](C(N)=O)NC(=O)[C@H](CO)NC(=O)[C@@H]2CCCN2C(=O)[C@H](Cc2ccccc2)NC(=O)[C@H](CC(=O)O)NC1=O [drawing 34] (H-CEFLDFPSC-NH2; disulfide 1-9)	
	6.26	CC(C)C[C@@H]1NC(=O)[C@H](Cc2ccccc2)NC(=O)[C@H](CCC(=O)O)NC(=O)[C@@H]2CCCN2C(=O)[C@@H](N)CSSC[C@@H](C(N)=O)NC(=O)[C@H](CO)NC(=O)[C@@H]2CCCN2C(=O)[C@H](Cc2ccccc2)NC(=O)[C@H](CC(=O)O)NC1=O [drawing 35] (H-CPEFLDFPSC-NH2; disulfide 1-10)	
	2.52	NC(=O)[C@@H]1CSSC[C@H](NC(=O)[C@@H](N)Cc2ccccc2)C(=O)N[C@@H](CC(=O)O)C(=O)N[C@@H](Cc2ccccc2)C(=O)N1 [drawing 39] (H-FCDFC-NH2; disulfide 2-5)	
		Arg-Gly-Asp [Arg-Gly-Asp peptide]	recruitment of T lymphocytes to skin inflammatory sites (contact hypersensitivity): also inhibitory
2		ILDFP-NH2 [SEQ ID NO:27, ILDFP-NH2]	
2		ILDVPILDVP-NH2 [SEQ ID NO:26, ILDVPILDVP-NH2]	
		Leu-Asp-Val [LDV]	affinity of VLA-4 compared with native CS-1 25-mer (VLA-4 [3]): at least two orders of magnitude lower affinity
< 1		SFDFS-NH2 [SEQ ID NO:31, SFDFS-NH2]	
